Results reported in patent US5840684A, “Glycopeptide antibiotic derivatives” (Eli Lilly and Company, priority 1995, dated 1998).
Values after ≈ are worked out from the molar mass of the structure shown.

Columns and labels:
[1] = test system: Staphylococcus aureus S13E; format: cell-based
Method: (§1) The MIC's were determined using a standard broth micro-dilution assay.

[2] = test system: Staphylococcus aureus SA1199B; format: cell-based
Method: as §1

[3] = test system: Entercoccus faecium 180-1; experiment: broth micro-dilution MIC; format: cell-based
Method: as §1

Entercoccus faecium 276 = experiment: broth micro-dilution MIC; format: cell-based
Method: as §1

[4] = test system: Staphylococcus aureus 446; experiment: broth micro-dilution MIC; format: cell-based
Method: as §1

[5] = test system: Staphylococcus aureus 447; experiment: broth micro-dilution MIC; format: cell-based
Method: as §1

[6] = test system: Staphylococcus aureus 489; experiment: broth micro-dilution MIC; format: cell-based
Method: as §1

[7] = test system: Staphylococcus aureus 491; experiment: broth micro-dilution MIC; format: cell-based
Method: as §1

[8] = test system: Staphylococcus aureus SA1199A; experiment: broth micro-dilution MIC; format: cell-based
Method: as §1

[9] = test system: Staphylococcus aureus SA1199; experiment: broth micro-dilution MIC; format: cell-based
Method: as §1

[10] = test system: Staphylococcus aureus X400; experiment: broth micro-dilution MIC; format: cell-based
Method: as §1

[11] = test system: Staphylococcus aureus X778; experiment: broth micro-dilution MIC; format: cell-based
Method: as §1

Entercoccus faecium 180 = experiment: broth micro-dilution MIC; format: cell-based; conditions: Entercoccus faecium 180
Method: (§2) The formula I compounds have in vitro and in vivo activity against Gram-positive pathogenic bacteria. The MIC's were determined using a standard broth micro-dilution assay.

Entercoccus faecium 2041 = experiment: broth micro-dilution MIC; format: cell-based; conditions: Entercoccus faecium 2041
Method: as §2

[12] = test system: Enterococcus gallinarum 245; experiment: broth micro-dilution MIC; format: cell-based; conditions: Enterococcus gallinarum 245
Method: as §2

[13] = test system: Staphylococcus epidermidis 270; experiment: broth micro-dilution MIC; format: cell-based
Method: as §2

[14] = test system: Staphylococcus haemolyticus 105; experiment: broth micro-dilution MIC; format: cell-based
Method: as §2

[15] = test system: Staphylococcus haemolyticus 415; experiment: broth micro-dilution MIC; format: cell-based
Method: as §2

[16] = test system: Streptococcus pneumoniae P1; experiment: broth micro-dilution MIC; format: cell-based
Method: as §2

[17] = test system: vancomycin-resistant enterococci; experiment: broth micro-dilution, mean geometric MIC; format: cell-based, Enterococcus faecium and Enterococcus faecalis; conditions: enterococci, 24-hour incubation
[18] = test system: vancomycin-susceptible enterococci; experiment: broth micro-dilution, mean geometric MIC; format: cell-based, Enterococcus faecium and Enterococcus faecalis; conditions: enterococci, 24-hour incubation

## CNC(CC(C)C)C(=O)NC1C(=O)NC(CC(N)=O)C(=O)NC2C(=O)NC3C(=O)NC(C(=O)NC(C(=O)O)c4cc(O)cc(O)c4-c4cc3ccc4O)C(OC3CC(C)(N)C(O)C(C)O3)c3ccc(c(Cl)c3)Oc3cc2cc(c3OC2OC(CO)C(O)C(O)C2OC2CC(C)(NCc3ccc(-c4ccccc4)cc3F)C(O)C(C)O2)Oc2ccc(cc2Cl)C1O (stereo not shown) [Compound 206]
[1]
  MIC: 1 µg/mL (≈ 0.563 µM)
[2]
  MIC: 1 µg/mL (≈ 0.563 µM)
[3]
  MIC: ≤ 0.06 µg/mL
Entercoccus faecium 276
  MIC: ≤ 0.06 µg/mL
[4]
  MIC: 0.5 µg/mL (≈ 0.281 µM)
[5]
  MIC: 0.5 µg/mL (≈ 0.281 µM)
[6]
  MIC: 1 µg/mL (≈ 0.563 µM)
[7]
  MIC: ≤ 0.06 µg/mL
[8]
  MIC: ≤ 0.06 µg/mL
[9]
  MIC: 0.5 µg/mL (≈ 0.281 µM)
[10]
  MIC: 0.5 µg/mL (≈ 0.281 µM)
[11]
  MIC: 0.5 µg/mL (≈ 0.281 µM)
Entercoccus faecium 180
  MIC: ≤ 0.06 µg/mL
Entercoccus faecium 2041
  MIC: 0.25 µg/mL (≈ 0.141 µM)
[12]
  MIC: 1 µg/mL (≈ 0.563 µM)
[13]
  MIC: 0.25 µg/mL (≈ 0.141 µM)
[14]
  MIC: 0.5 µg/mL (≈ 0.281 µM)
[15]
  MIC: 1 µg/mL (≈ 0.563 µM)
[16]
  MIC: ≤ 0.06 µg/mL
[17]
  mean geometric MIC, Vancomycin Resistant Strains: 1.7 µg/mL
[18]
  mean geometric MIC, Vancomycin Sensitive Strains: 0.095 µg/mL

## CCCCCCCCC#CCCCCCCNC1(C)CC(OC2C(Oc3c4cc5cc3Oc3ccc(cc3Cl)C(OC3CC(C)(N)C(O)C(C)O3)C3NC(=O)C(NC(=O)C5NC(=O)C(CC(N)=O)NC(=O)C(NC(=O)C(CC(C)C)NC)C(O)c5ccc(c(Cl)c5)O4)c4ccc(O)c(c4)-c4c(O)cc(O)cc4C(C(=O)O)NC3=O)OC(CO)C(O)C2O)OC(C)C1O (stereo not shown) [Compound 207]
[1]
  MIC: 8 µg/mL (≈ 4.41 µM)
[2]
  MIC: 16 µg/mL (≈ 8.83 µM)
[3]
  MIC: ≤ 0.06 µg/mL
Entercoccus faecium 276
  MIC: 0.25 µg/mL (≈ 0.138 µM)
[4]
  MIC: 8 µg/mL (≈ 4.41 µM)
[5]
  MIC: 8 µg/mL (≈ 4.41 µM)
[6]
  MIC: 4 µg/mL (≈ 2.21 µM)
[7]
  MIC: 1 µg/mL (≈ 0.552 µM)
[8]
  MIC: 4 µg/mL (≈ 2.21 µM)
[9]
  MIC: 8 µg/mL (≈ 4.41 µM)
[10]
  MIC: 8 µg/mL (≈ 4.41 µM)
[11]
  MIC: 8 µg/mL (≈ 4.41 µM)
Entercoccus faecium 180
  MIC: 1 µg/mL (≈ 0.552 µM)
Entercoccus faecium 2041
  MIC: 0.125 µg/mL (≈ 0.069 µM)
[12]
  MIC: 1 µg/mL (≈ 0.552 µM)
[13]
  MIC: 8 µg/mL (≈ 4.41 µM)
[14]
  MIC: 8 µg/mL (≈ 4.41 µM)
[15]
  MIC: 1 µg/mL (≈ 0.552 µM)
[16]
  MIC: ≤ 0.06 µg/mL
[17]
  mean geometric MIC, Vancomycin Resistant Strains: 1.2 µg/mL
[18]
  mean geometric MIC, Vancomycin Sensitive Strains: 0.50 µg/mL

## CNC(CC(C)C)C(=O)NC1C(=O)NC(CC(N)=O)C(=O)NC2C(=O)NC3C(=O)NC(C(=O)NC(C(=O)O)c4cc(O)cc(O)c4-c4cc3ccc4O)C(OC3CC(C)(N)C(O)C(C)O3)c3ccc(c(Cl)c3)Oc3cc2cc(c3OC2OC(CO)C(O)C(O)C2OC2CC(C)(NCc3ccc(-c4ccc([N+](=O)[O-])cc4)c([N+](=O)[O-])c3)C(O)C(C)O2)Oc2ccc(cc2Cl)C1O (stereo not shown) [Compound 212]
[1]
  MIC: ≤ 0.06 µg/mL
[2]
  MIC: ≤ 0.06 µg/mL
[3]
  MIC: ≤ 0.06 µg/mL
Entercoccus faecium 276
  MIC: ≤ 0.06 µg/mL
[4]
  MIC: ≤ 0.06 µg/mL
[6]
  MIC: ≤ 0.06 µg/mL
[7]
  MIC: ≤ 0.06 µg/mL
[8]
  MIC: ≤ 0.06 µg/mL
[9]
  MIC: ≤ 0.06 µg/mL
[10]
  MIC: ≤ 0.06 µg/mL
[11]
  MIC: ≤ 0.06 µg/mL
Entercoccus faecium 180
  MIC: ≤ 0.06 µg/mL
Entercoccus faecium 2041
  MIC: ≤ 0.06 µg/mL
[12]
  MIC: 1 µg/mL (≈ 0.541 µM)
[13]
  MIC: ≤ 0.06 µg/mL
[14]
  MIC: 1 µg/mL (≈ 0.541 µM)
[15]
  MIC: 1 µg/mL (≈ 0.541 µM)
[16]
  MIC: ≤ 0.06 µg/mL
[17]
  mean geometric MIC, Vancomycin Resistant Strains: 0.50 µg/mL
[18]
  mean geometric MIC, Vancomycin Sensitive Strains: 0.036 µg/mL

## CNC(CC(C)C)C(=O)NC1C(=O)NC(CC(N)=O)C(=O)NC2C(=O)NC3C(=O)NC(C(=O)NC(C(=O)O)c4cc(O)cc(O)c4-c4cc3ccc4O)C(OC3CC(C)(N)C(O)C(C)O3)c3ccc(c(Cl)c3)Oc3cc2cc(c3OC2OC(CO)C(O)C(O)C2OC2CC(C)(NCCCCCCCCCCCCc3ccccc3)C(O)C(C)O2)Oc2ccc(cc2Cl)C1O (stereo not shown) [Compound 234]
[1]
  MIC: 8 µg/mL (≈ 4.36 µM)
[2]
  MIC: 8 µg/mL (≈ 4.36 µM)
[3]
  MIC: 1 µg/mL (≈ 0.544 µM)
Entercoccus faecium 276
  MIC: 4 µg/mL (≈ 2.18 µM)
[4]
  MIC: 4 µg/mL (≈ 2.18 µM)
[5]
  MIC: 8 µg/mL (≈ 4.36 µM)
[6]
  MIC: 4 µg/mL (≈ 2.18 µM)
[7]
  MIC: 8 µg/mL (≈ 4.36 µM)
[8]
  MIC: 2 µg/mL (≈ 1.09 µM)
[9]
  MIC: 8 µg/mL (≈ 4.36 µM)
[10]
  MIC: 8 µg/mL (≈ 4.36 µM)
[11]
  MIC: 4 µg/mL (≈ 2.18 µM)
Entercoccus faecium 180
  MIC: 1 µg/mL (≈ 0.544 µM)
Entercoccus faecium 2041
  MIC: 0.5 µg/mL (≈ 0.272 µM)
[12]
  MIC: 16 µg/mL (≈ 8.71 µM)
[13]
  MIC: 4 µg/mL (≈ 2.18 µM)
[14]
  MIC: 8 µg/mL (≈ 4.36 µM)
[15]
  MIC: 16 µg/mL (≈ 8.71 µM)
[17]
  mean geometric MIC, Vancomycin Resistant Strains: 2 µg/mL
[18]
  mean geometric MIC, Vancomycin Sensitive Strains: 2 µg/mL
